Measurements as given in US10617664B2, “Brain derived PPARα ligands” (Rush University Medical Center, priority 2015, dated 2020).

Tests used:
[1] = GC-MS of GFP-affinity purified extract of transduced Ppara-null hippocampal neurons; assay type: binding, mouse; conditions: Vector Only; for Rel. Abundance (RA): normalized with internal standard
Protocol: Lentivirus-mediated de novo expression studies were performed, where wild type full-length (GFP-FLPpara) was overexpressed and three different LBD-mutated PPARα (GFP-Y314D, GFP-Y464D and GFP-Y314D/Y464D Ppara) recombinant proteins (FIG. 9D) were expressed in neurons followed by binding analyses with three endogenous ligands. Briefly, site directed mutagenesis was performed in the mouse PPARα with Y314 and Y464 residues replaced separately or together with aspartate (D). After that, the entire mouse GFP-Ppara gene (GFP-FLPpara) and three different mutated genes were cloned in the pLenti6/V5-TOPO lentiviral expression vector (FIG. 3D), packaged in lentivirus particle with HEK293FT cells, purified full length and mutated PPARα proteins in a GFP-affinity column, and finally thermal shift assays were performed in order to analyze their conformational stability. […] After 48 h of transduction, the cells were homogenized, passed through GFP-affinity column, eluted, fractionated with chloroform-methanol, and finally analyzed by GC-MS for the detection of ligands. […] On the other hand, mutation of the Y464 completely knocked down the ligand binding affinity as we observed profound loss of ligand binding in both lenti-GFP-Y464D-Ppara (FIG. 3K, FIG. 9K) and lenti-GFP-Y314D/Y464D-Ppara (FIG. 3L, FIG. 9L)-transduced Ppara-null neurons. Throughout these analyses, we used 2,4-bis (α, α-dimethyl benzyl) phenol as an internal standard (Supplementary FIG. 5A-F). We normalized peak area of different ligands with that of internal standard and then quantified the binding affinity of these ligands with different construct of PPARα by peak integration statistics (Table 1).
Either E18 cultured mouse hippocampal neurons or hippocampal tissue of 6-8 week old male C57/BL6 mice were homogenized in ice-cold nondetergent hypotonic buffer [10 mM HEPES (pH 7.9), 1.5 mM MgCl2, 10 mM KCl, […], protease and phosphatase inhibitor cocktail]. After 10 min of additional incubation in the hypotonic buffer, the homogenate was centrifuged at 8,000 g at 4° C. for 10 min. Next, the pellet was homogenized in ice-cold extraction buffer [10 mM HEPES (pH 7.9), 1.5 mM MgCl2, 0.21 M NaCl, 0.2 mM EDTA, 25% (v/v) glycerol, […], protease and phosphatase inhibitor cocktail], placed on a rotating shaker at 4° C. for 1 h, and then centrifuged at 18,000 g for 10 min. The supernatant (nuclear fraction) was incubated with 1.5 μg of GST PPARα LBD (Protein One) at 4° C. for 6 h in a rotating shaker. The reaction mixture was passed through glutathione column (Pierce® GST Spin Purification Kit), washed four times [50 mM Tris HCl (pH 7.4), 100 mM NaCl, protease and phosphatase inhibitor cocktail] and then eluted with free glutathione. The eluate was transferred to methanol:chloroform:water (4:3:1) mixture and then centrifuged at 14,000 rpm for 90 sec. The organic phase was collected, evaporated in the SpeedVac, reconstituted with 30 μL chloroform or acetonitrile, and then analyzed by GC-MS. In another case, E18 cultured hippocampal neurons were transduced with lentiviral particles conjugated with PPARα-LBD or different GFP-tagged mutated constructs followed by pulling down with anti-PPARα antibody or passing the extract through GFP-column of Vector Fusion-Aid GFP Kit (Cat # MB-0732). After that, the eluate was collected from the column with 5M NaCl solution, concentrated with PD-10 desalting column and analyzed for GC-MS.
A JEOL GCMate II (JEOL USA, Peabody Mass.) mass spectrometer was used in these experiments. The gas chromatograph was an Agilent 6890Plus (Wilmington Del.) equipped with a G1513A auto-injector with 100 vial sample tray connected to a G1512A controller. The gas chromatography column was a fused silica capillary column with a nonpolar 5% phenyl 95% dimethylpolysiloxane phase (Agilent HP-5 ms), 30 meters long, 0.25 mm internal diameter, 0.25 μm film thickness. […]

Y314D-Ppara = target: T1, Y314D-Ppara (Mus musculus, UniProt P23204, Y314D); experiment: as above; assay type: binding; conditions: lenti-GFP-Y314D-Ppara transduced Ppara-null neurons
T1 construct: the entire mouse GFP-Ppara gene (GFP-FLPpara) and three different mutated genes were cloned; expressed in transfected cells; host or cells: Ppara-null mouse hippocampal neurons, lentiviral transduction
T1 sequence (P23204 1-468 Y314D): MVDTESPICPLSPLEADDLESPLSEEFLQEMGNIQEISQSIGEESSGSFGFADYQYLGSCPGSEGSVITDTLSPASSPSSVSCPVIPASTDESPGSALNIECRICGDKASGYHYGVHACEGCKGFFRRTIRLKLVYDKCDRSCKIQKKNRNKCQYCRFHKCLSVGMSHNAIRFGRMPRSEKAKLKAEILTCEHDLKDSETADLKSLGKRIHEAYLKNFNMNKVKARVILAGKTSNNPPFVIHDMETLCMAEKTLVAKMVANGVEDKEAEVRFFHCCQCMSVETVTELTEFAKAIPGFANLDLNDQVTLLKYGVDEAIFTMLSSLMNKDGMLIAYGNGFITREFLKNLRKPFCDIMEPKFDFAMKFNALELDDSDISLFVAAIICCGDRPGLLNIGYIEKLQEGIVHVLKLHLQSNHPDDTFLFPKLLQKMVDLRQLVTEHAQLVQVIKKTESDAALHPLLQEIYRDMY
Protocol: Lentivirus-mediated de novo expression studies were performed, where wild type full-length (GFP-FLPpara) was overexpressed and three different LBD-mutated PPARα (GFP-Y314D, GFP-Y464D and GFP-Y314D/Y464D Ppara) recombinant proteins (FIG. 9D) were expressed in neurons followed by binding analyses with three endogenous ligands. Briefly, site directed mutagenesis was performed in the mouse PPARα with Y314 and Y464 residues replaced separately or together with aspartate (D). […] We normalized peak area of different ligands with that of internal standard and then quantified the binding affinity of these ligands with different construct of PPARα by peak integration statistics (Table 1).
Either E18 cultured mouse hippocampal neurons or hippocampal tissue of 6-8 week old male C57/BL6 mice were homogenized in ice-cold nondetergent hypotonic buffer [10 mM HEPES (pH 7.9), 1.5 mM MgCl2, 10 mM KCl, […], protease and phosphatase inhibitor cocktail]. […] The organic phase was collected, evaporated in the SpeedVac, reconstituted with 30 μL chloroform or acetonitrile, and then analyzed by GC-MS. […] After that, the eluate was collected from the column with 5M NaCl solution, concentrated with PD-10 desalting column and analyzed for GC-MS. […]

SMILES	% RA [1]	Adjusted peak area [1]	Rel. Abundance (RA) [1]	amount detected in nuclear extract by GC-MS (Y314D-Ppara)
CCCCCCCCCCCCCCCC(N)=O [HEX, hexadecanamide]	1.92%	17632	0.01924	low amount
CCCCCCCCC=CCCCCCCCC(N)=O [OCT, 9-octadecenamide]	8.69%	79623	0.08689	low amount
